From patent publication US10201507B2, “Modulators of intracellular chloride concentration for treating fragile X syndrome” (NEUROCHLORE, priority 2012, dated 2019)

Assays:
Format in all cases: in vivo, mouse
[1] = system: hippocampal CA3 pyramidal neurons; test: DFGABA in offspring at P15 after maternal pretreatment
Experimental: Mice lacking Fmr1 (referred to as Fmr1^−/−) were bred in our animal facility. […] For all experiments, Fmr1^−/− mice were used with wild-type littermates as a control group. The offspring were used for experiments at E18, P0, P2, P4, P7, P9, P15 and P30. Experiments were carried out on offspring of either sex and in a blind manner at E18 and P0. Hippocampal slices (300-500 μm thick) were prepared using a Microm tissue slicer (International GmbH, Germany) as described previously (Tyzio et al., 2006, 2008). Slices were kept in oxygenated (95% O2/5% CO2) artificial cerebrospinal fluid (ACSF) of the following composition (in mM): […] For recordings, slices were placed into a conventional fully submerged chamber superfused with ACSF at a rate of 2-3 ml/min at room temperature. Patch clamp recordings from visually identified CA3 pyramidal cells in cell-attached configuration were performed using EPC-10 amplifier (HEKA Elektronik Dr. Schulze GmbH, Lambrecht/Pfalz, Germany). Patch pipette solution for recordings of single GABAA channels contained (in mM): NaCl 120, KCl 5, TEA-Cl 20, 4-aminopyridine 5, CaCl2 0.1, MgCl2 10, glucose 10, Hepes-NaOH 10 buffered to pH 7.2-7.3 and GABA 2 μM. Analysis of currents through single channels and current-voltage relationships were performed using Clampfit 9.2 (Axon Instruments, Union City, Calif.). […]

FXS mice = test: Isolation-induced ultrasonic vocalizations (USVs) at P8 after maternal pretreatment
Text: To induce ultrasonic vocalizations, mouse pups were isolated individually from their mother on postnatal day 8, and were placed into an isolation box (23×28×18 cm) located inside a sound attenuating isolation cubicle (54×57×41 cm; Coulbourn Instruments, Allentown, Pa., USA), and evaluated for ultrasonic vocalizations during a three minute test. An ultrasound microphone (Avisoft UltraSoundGate Condenser microphone capsule […] Bioacoustics, Berlin, Germany), placed in the roof of the box, was sensitive to frequencies of 10 to 250 kHz. Vocalizations were recorded using the Avisoft Recorder software (version 4.2) with a sampling rate of 250 kHz in 16 bit format. For acoustical analysis, recordings were transferred to SASLab Pro (version 5.2; Avisoft Bioacoustics) and a fast Fourier transformation was conducted (512 FFT-length, 100% frame, Hamming window and 75% time window overlap). The accuracy of call detection was verified manually by an educated user. A Pearson correlation coefficient was computed to assess the relationship between Automatic and Manual analysis. There was 0.99 correlations between the two variables. A t postnatal day 8, waveform patterns of calls were examined in 45 sonograms from 4 groups of mice (WT, FXS, WT pretreated, FXS pretreated). Each call was identified as one of 10 distinct categories, and only the sonograms where mice emitted at least 50 calls were used for this evaluation. To test whether depolarizing actions of GABA were associated with neuronal excitation, the effect of the GABAA receptor agonist isoguvacine was tested. […] To test whether maternal treatment with bumetanide before delivery switches the action of GABA from excitatory to inhibitory in offsprings at P15, pregnant females were treated orally 1 day before delivery with bumetanide (2-2.5 mg/kg in drinking water) and juvenile offspring neurons recorded at P15. […] Therefore, excitatory actions of GABA during delivery produce long term deleterious effects on electrophysiological parameters of FXS juvenile neurons. In FXS mice, GABAergic inputs are excitatory and contribute to hyperexcitability of the network. Bumetanide decreases [Cl^-]i and consequently reduces contribution of excitatory GABAergic inputs in the overall network activity. Isolation and Ultrasonic vocalizations were induced in mice to determine behavioral effect of Bumetanide in a model of FXS. An increased probability of emitting downward and chevron calls in FXS pups than age matched WT (P8). This was rescued by maternal bumetanide pretreatment (FIG. 4, table 3). Therefore, elevated [Cl^-]i levels during delivery are involved in the pathogenesis of Fragile X syndrome.

[2] = system: hippocampal CA3 pyramidal neurons; test: Whole-cell recordings of spontaneous excitatory postsynaptic currents (sEPSCs) at P15 after maternal pretreatment; conditions: FXS offspring P15, maternal pretreatment, −70 mV
Experimental: Standard whole-cell recordings were performed in coronal neocortical rat or mouse brain slices at room temperature (20-22° C.) from the soma of hippocampal CA3 neurons using an EPC-10 (HEKA Elektronik, Germany) amplifier and filtered at 3-10 kHz. The internal solution contained (in mM): 130 K-gluconate, 10 Na-gluconate, 4 NaCl, 4 MgATP, 4 phosphocreatine, 10 HEPES, and 0.3 GTP (pH 7.3 with KOH). Biocytin (final concentration 0.3-0.5%) was added to the pipette solution to label the neurons from which recordings were obtained. Neurons were visualized by using infrared DIC video microscopy. Spontaneous postsynaptic currents were recorded for […] at the reversal potentials for GABAergic currents (-70 mV). […] Stored data were analyzed using the Mini Analysis 6.0.3 (Synaptosoft Inc., […].) and Origin (MicroCal, Northampton, Mass.) software. […] Data are expressed as mean±S.E.M. To test whether depolarizing actions of GABA were associated with neuronal excitation, the effect of the GABAA receptor agonist isoguvacine was tested. […] To test whether maternal treatment with bumetanide before delivery switches the action of GABA from excitatory to inhibitory in offsprings at P15, pregnant females were treated orally 1 day before delivery with bumetanide (2-2.5 mg/kg in drinking water) and juvenile offspring neurons recorded at P15. […]

## CCCCNc1cc(C(=O)O)cc(S(N)(=O)=O)c1Oc1ccccc1 [bumetanide]
[1]; P15 FXS mice, maternal pretreatment orally 1 day before delivery, 2-2.5 mg/kg in drinking water
  average DFGABA: 1.0±1.1 mV
[1]; P15 FXS, maternal pretreatment
  Effect on DFGABA in offsprings (in words): restored control DFGABA values
FXS mice; P8 FXS mice
  Chevron calls, isolation-induced USVs: 0.6 ± 0.1 (n = 13)
  Downward calls, isolation-induced USVs: 10.2 ± 1.4 (n = 13)
FXS mice; P8 FXS pups
  Increased probability of downward and chevron calls (in words): rescued
FXS mice; P8 WT mice
  Chevron calls, isolation-induced USVs: 0.5 ± 0.3 (n = 9)
  Downward calls, isolation-induced USVs: 13.5 ± 2.8 (n = 9)
[2]
  ongoing activity and frequency of glutamatergic sEPSCs (in words): significantly reduced
